Source: patent US8475804B2 (priority 2009, dated 2013)
Counter-ions that a name gives are not always drawn. Like-named read-outs stand apart in the source and are kept apart here.

Assays:
[1] = tested on: Ebola virus; experiment: microbe, parasite or virus in culture; assay type: cell-based, Ebolavirus (EBOV)
[2] = tested on: Ebola virus; experiment: microbe, parasite or virus in culture; assay type: cell-based, Ebolavirus (EBOV); set-up: Max Effect HepG2: unit not given here; details: for Emax: HepG2, read-out: Max Effect HepG2
[3] = Zaire ebolavirus, Vero, read-out: Max Effect
[4] = Zaire ebolavirus, Vero, read-out: Max Effect Vero
[5] = Zaire ebolavirus, Vero, read-out: IC50 (μM) Vero
[6] = Zaire ebolavirus, HepG2, read-out: IC50 (μM) HepG2

| Compound | Max Effect [1] | Max Effect Vero [1] | Max Effect HepG2 [2] | Emax [1, 3] [%] | Emax [1, 4] [%] | Emax ([2]; Zaire ebolavirus) [%] | IC50 ([1]; Zaire ebolavirus, Vero) [µM] | IC50 [1, 5] [µM] | IC50 [2, 6] [µM] | IC50 ([1]; read-out: IC50) [µM] | IC50 ([1]; read-out: IC50 (μM) Vero) [µM] | IC50 ([2]; read-out: IC50 (μM) HepG2) [µM] | IC50 [1] [µM] |
| --- | --- | --- | --- | --- | --- | --- | --- | --- | --- | --- | --- | --- | --- |
| Cl.Cl.OCCN1CCN(CCC=C2c3ccccc3Sc3ccc(C(F)(F)F)cc32)CC1 (mixture of isomers) [Flupentixol Dihydrochloride] | 0.660 | 0.959 | 0.744 |  |  |  |  |  |  |  |  |  |  |
| O=C1CCc2ccc(OCCCCN3CCN(c4cccc(Cl)c4Cl)CC3)cc2N1 [Aripiprazole] |  |  |  | 80.7 | 53 | 94.7 |  |  |  |  |  |  |  |
| COc1ccc(CCN2CCC(Nc3nc4ccccc4n3Cc3ccc(F)cc3)CC2)cc1 [Astemizole] |  |  |  | 83.5 | 96.5 | 91.4 |  |  |  |  |  |  |  |
| O=C1C(O)=C([C@H]2CC[C@H](c3ccc(Cl)cc3)CC2)C(=O)c2ccccc21 [Atovaquone] |  |  |  | 90 | 73.9 | 23.1 | < 1 | 0.44 |  |  |  |  |  |
| Nc1ncn([C@@H]2O[C@H](CO)[C@@H](O)[C@H]2O)c(=O)n1 [Azacitidine] |  |  |  | 59.5 | 74.6 | 89.9 | 5 | 8.9 | 10 |  |  |  |  |
| CN1[C@@H]2CC[C@H]1C[C@@H](OC(c1ccccc1)c1ccccc1)C2 [Benztropine Mesylate] |  |  |  | 63.3 | 89.9 | 94.3 |  |  |  |  |  |  |  |
| CC(C)COCC(CN(Cc1ccccc1)c1ccccc1)N1CCCC1 (stereo not shown) [Bepridil Hydrochloride Monohydrate] |  |  |  | 72 | 97 | 91.2 | 3.1 | 5.1 | 3.2 |  |  |  |  |
| CCN(CC)CCOc1ccc(/C(=C(\Cl)c2ccccc2)c2ccccc2)cc1 [Clomiphene Citrate] |  |  |  | 91.2 | 96.4 | 93.4 |  |  |  |  |  |  |  |
| CN(C)CCCN1c2ccccc2CCc2ccc(Cl)cc21 [Clomipramine Hydrochloride] |  |  |  | 58.5 | 96.1 | 89.7 |  |  |  |  |  |  |  |
| Cc1nc(Nc2ncc(C(=O)Nc3c(C)cccc3Cl)s2)cc(N2CCN(CCO)CC2)n1 [Dasatinib] |  |  |  | 42.8 | 64.2 | 94.1 |  | 16 | 4.2 |  |  |  |  |
| O=C1Nc2ccc(Cl)cc2[C@@](C#CC2CC2)(C(F)(F)F)O1 [Efavirenz] |  |  |  | 51.6 | 63.9 | 86 | 7.8 | 10 | 14 |  |  |  |  |
| OCCN1CCN(CC/C=C2/c3ccccc3Sc3ccc(C(F)(F)F)cc32)CC1 [Flupentixol Dihydrochloride] |  |  |  |  |  |  |  |  |  | 3.8 | 5.7 | 1.6 |  |
| OCCN1CCN(CCCN2c3ccccc3Sc3ccc(C(F)(F)F)cc32)CC1 [Fluphenazine Hydrochloride] |  |  |  | 98.8 | 96.8 | 92 |  |  |  |  |  |  |  |
| CCN(CC)CCNc1ccc(CO)c2sc3ccccc3c(=O)c12 [Hycanthone] |  |  |  | 59.7 | 96.8 | 96.2 | 10.4 | 11 | 6 |  |  |  |  |
| CO[C@H]1C[C@H](O[C@H]2CC[C@]3(C=O)[C@H]4CC[C@]5(C)[C@@H](C6=CC(=O)OC6)CC[C@]5(O)[C@@H]4CC[C@]3(O)C2)O[C@H](C)[C@H]1O [K-Strophanthin] |  |  |  | 90 | 74.2 | 86.7 | < 0.5 | 0.035 | 0.021 |  |  |  |  |
| COc1ccc(CN2CCN(C(c3ccc(F)cc3)c3ccc(F)cc3)CC2)c(OC)c1OC [Lomerizine Dihydrochloride] |  |  |  | 66.5 | 89.9 | 91.8 | 10.1 | 11 | 2.1 |  |  |  |  |
| CNCCCC12CCC(c3ccccc31)c1ccccc12 [Maprotiline Hydrochloride] |  |  |  | 79.5 | 98.6 | 92.5 |  |  |  |  |  |  |  |
| COc1c(C)c2c(c(O)c1C/C=C(\C)CCC(=O)OCCN1CCOCC1)C(=O)OC2 [Mycophenolate Mofetil] |  |  |  | 90 | 43.8 | 88.6 | < 1 |  | 0.29 |  |  |  |  |
| Fc1ccc([C@@H]2CCNC[C@H]2COc2ccc3c(c2)OCO3)cc1 [Paroxetine Hydrochloride Hemihydrate] |  |  |  | 82 | 96 | 92 | 9.3 | 7.4 | 1.4 |  |  |  |  |
| O=c1[nH]c2ccccc2n1C1CCN(CCCC(c2ccc(F)cc2)c2ccc(F)cc2)CC1 [Pimozide] |  |  |  | 68.5 | 96.8 | 91 | 4.8 | 3.1 | 1.7 |  |  |  |  |
| CC(=O)c1ccc2c(c1)N(CCCN1CCC(CCO)CC1)c1ccccc1S2 [Piperacetazine] | 0.641 | 0.962 | 0.954 |  |  |  |  |  |  | 6.6 | 12 | 3.3 |  |
| CN1CCN(CCCN2c3ccccc3Sc3ccc(Cl)cc32)CC1 [Prochlorperazine Edisylate] |  |  |  | 89 | 96.3 | 94.7 |  |  |  |  |  |  |  |
| CCN(CC)CCCC(C)Nc1c2ccc(Cl)cc2nc2ccc(OC)cc12 (stereo not shown) [Quinacrine Dihydrochloride] |  |  |  | 77.9 | 92.3 | 86.2 | 9.5 | 5.7 | 1 |  |  |  |  |
| CN[C@H]1CC[C@@H](c2ccc(Cl)c(Cl)c2)c2ccccc21 [Sertraline Hydrochloride] |  |  |  | 41.8 | 96.2 | 95 |  |  |  |  |  |  |  |
| CCC(C)(C)C(=O)O[C@H]1C[C@@H](C)C=C2C=C[C@H](C)[C@H](CC[C@@H]3C[C@@H](O)CC(=O)O3)[C@H]21 [Simvastatin] |  |  |  | 69 | 55.7 | 35.3 | 2 | 20 |  |  |  |  |  |
| CN(C)CCOc1ccc(/C(=C(/CCCl)c2ccccc2)c2ccccc2)cc1 [Toremifene Citrate] | 0.900 |  |  |  | 93.5 | 94.9 |  | 0.16 | 0.026 |  |  |  | > 1 |
| Vinorelbine Tartrate Hydrate | 0.472 | 0.256 | 0.788 |  |  |  |  |  |  | 3.2 |  | 0.86 |  |
